Literature values, collected in US11478463B2, “Mast cell stabilizers for treatment of chronic inflammatory conditions” (Emergo Therapeutics, Inc., priority 2016, dated 2022).

What was measured:
[1] = patients
[2] = ketotifen 2 mg per dose, twice daily
[3] = in vivo

Compound	drowsiness [1]	steady state level [2] [ng/mL]	time to approach steady state level [2]	half-life relative to ketotifen [3]
CN1CCC(=C2c3ccccc3CC(=O)c3sccc32)CC1 [ketotifen]	causes extreme drowsiness in many patients	~2	at least 2.5 days	
O=C1Cc2ccccc2C(=C2CCNCC2)c2ccsc21 [norketotifen]	does not cause drowsiness			longer half-life than ketotifen
